By IC50 is commonly meant the midpoint of a concentration-inhibition curve.

The values that follow come from article PMC6818106, “Synthesis of thiazolidin-4-ones and thiazinan-4-ones from 1-(2-aminoethyl)pyrrolidine as acetylcholinesterase inhibitors” (Journal of Enzyme Inhibition and Medicinal Chemistry, 2019).

Data set [1] has as its target T1, AChE (Rattus norvegicus, UniProt P37136).
T1 construct: the use of crude homogenised from rat’s brain structures, as used in the present work; from tissue; host or cells: Wistar rat cerebral cortex, homogenate supernatant
Kind of data set: In vitro AChE activity (Ellman method) in hippocampus homogenate. The class given is biochemical. The settings on record: for IC50: rat hippocampus homogenate, calculated with GraphPad Prism 5, read-out: IC50 of AChE inhibition, Hippocampus; for concentration from which AChE activity was inhibited, hippocampus: vs control group (water and methanol), p < .05, tested 0.1-250 μM. The method, then:
(§1) In vitro was evaluated the potential inhibition of thiazolidin-4-ones and thiazinan-4-ones against AChE activity enzyme in hippocampus and cerebral cortex of Wistar rats (60 days, 250–300 g), since it is well described that these two structures in the brain play an important role in memory. All procedures involving the animals were approved by the Committee of Ethics in Animal Experimentation of UFPel (CEEA 9219). The animals were submitted to euthanasia and the brain was removed. Subsequently, the hippocampus and cerebral cortex were separated and homogenised in buffer Tris HCl 10 mM (pH 7.4). The homogenates were centrifuged at 1800 rpm for 10 min and the supernatant was used for in vitro analyses of the potential inhibitory effect of thiazolidin-4-one and thiazinan-4-ones on AChE activity.
(§2) The compounds were solubilised in methanol and prepared in different concentrations (0.1, 0.5, 1, 5, 10, 25, 50, 100 and 250 μM). […] The thiocholine, in turn, reacts with DTNB to form a chromophore, 5-thio-2-nitrobenzoic, which is quantified spectrophotometrically at 412 nm. The enzymatic activity was expressed in μmols of AcSCh/h/mg protein. Proteins were determined by the method of Bradford[29] using the Coomassie Blue reagent. Bovine albumin was used as standard.

Data set [2] has as its target T1, AChE. Description: In vitro AChE activity (Ellman method) in cerebral cortex homogenate. Type of data set: biochemical. To be noted: for IC50: rat cerebral cortex homogenate, calculated with GraphPad Prism 5, read-out: IC50 of AChE inhibition, Cortex; for concentration from which AChE activity was inhibited, cerebral cortex: vs control group (water and methanol), p < .05, tested 0.1-250 μM. As for the experimental part: as §1, §2

A further data set has as its system cortical astrocytes. Description: Cytotoxicity in cortical astrocyte primary culture (MTT cell viability). The class given is cell-based. The settings on record: 100 μM, 48 h and 72 h; p > .05. The method, then: In the evaluation of the cytotoxicity of the thiazolidin-4-ones and thiazinan-4-ones in astrocytes, Wistar rats (1–2 days) were used to obtain cortical astrocytes, which were cultured in 96-well plates (3x10^4 per well) and maintained with Dulbecco’s modified Eagle’s medium (DMEM) supplemented with 10% Bovine Foetal Serum (FBS)[30]. Cells were maintained under standard conditions (5% CO2, 37 °C and humidified atmosphere) for 15 days, receiving periodic exchange of culture medium until treatments were received. After time and maturation, the astrocytes were treated with the compounds at the concentration of 100 μM. Cells were exposed to this concentration for 48 h and 72 h. After treatment, cell viability was analysed by the test of 3-(4,5-dimethylthiazol-2yl)-2,5-diphenyltetrazolium bromide (MTT). This method consists of measuring the number of cells with the metabolically active mitochondria, based on the reduction of the tetrazolium salt to the formazan crystals. The absorbance was determined on a microplate reader at 492 nm. The absorbance is linearly proportional to the number of cells with active mitochondria, indicating how many viable cells remained at the end of the treatment.

T1 sequence (P37136 32-614): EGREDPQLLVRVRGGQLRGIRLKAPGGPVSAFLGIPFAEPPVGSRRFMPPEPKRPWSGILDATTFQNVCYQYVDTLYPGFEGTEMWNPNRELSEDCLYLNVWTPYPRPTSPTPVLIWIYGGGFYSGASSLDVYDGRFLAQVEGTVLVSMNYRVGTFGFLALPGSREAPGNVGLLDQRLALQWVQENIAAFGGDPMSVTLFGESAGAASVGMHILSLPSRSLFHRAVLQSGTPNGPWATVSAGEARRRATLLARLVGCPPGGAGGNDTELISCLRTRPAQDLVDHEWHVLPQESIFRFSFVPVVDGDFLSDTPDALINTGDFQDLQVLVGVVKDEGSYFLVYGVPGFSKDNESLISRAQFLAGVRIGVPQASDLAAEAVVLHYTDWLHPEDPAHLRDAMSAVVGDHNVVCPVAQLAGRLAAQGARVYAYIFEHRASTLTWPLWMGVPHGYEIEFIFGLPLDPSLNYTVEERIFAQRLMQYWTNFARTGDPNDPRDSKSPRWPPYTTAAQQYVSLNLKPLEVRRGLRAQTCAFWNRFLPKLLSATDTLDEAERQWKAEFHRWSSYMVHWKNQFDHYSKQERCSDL

“2-(2-methoxyphenyl)-3-(2-(pyrrolidin-1-yl)ethyl)-1,3-thiazinan-4-one [6l]”: at AChE [1], the IC50 is 84.9 µM and the “concentration from which AChE activity was inhibited, hippocampus” value is ≥ 100 µM. For the same compound, on AChE [2], the IC50 was > 250 µM and the “concentration from which AChE activity was inhibited, cerebral cortex” value was ≥ 100 µM.
Consider `O=C1CSC(c2ccccc2)N1CCN1CCCC1` (centres unmarked) [5a, 2-phenyl-3-(2-(pyrrolidin-1-yl)ethyl)thiazolidin-4-one], for which the half-inhibitory concentration (IC50) at AChE [1] was 30.9 µM; at AChE [2], > 250 µM.
Consider `O=C1CSC(c2ccc(Cl)cc2)N1CCN1CCCC1` (centres unmarked) [5g, 2-(4-chlorophenyl)-3-(2-(pyrrolidin-1-yl)ethyl)thiazolidin-4-one], for which the half-inhibitory concentration (IC50) at AChE [1] and on AChE [2] was > 250 µM each time.
As for `O=C1CSC(c2ccccc2[N+](=O)[O-])N1CCN1CCCC1` (centres unmarked) [5h, 2-(2-nitrophenyl)-3-(2-(pyrrolidin-1-yl)ethyl)thiazolidin-4-one], the half-maximal inhibitory concentration (IC50) at AChE [1] is 105 µM; on AChE [2], > 250 µM.
Take `O=C1CSC(c2cccc([N+](=O)[O-])c2)N1CCN1CCCC1` (centres unmarked) [5i, 2-(3-nitrophenyl)-3-(2-(pyrrolidin-1-yl)ethyl)thiazolidin-4-one]: at AChE [1], the concentration for half-maximal inhibition (IC50) is 81.6 µM and the “concentration from which AChE activity was inhibited, hippocampus” value is ≥ 10 µM. Moreover, at AChE [2], the IC50 is 10.2 µM and the “concentration from which AChE activity was inhibited, cerebral cortex” value is ≥ 10 µM.
On to `O=C1CSC(c2ccc([N+](=O)[O-])cc2)N1CCN1CCCC1` (centres unmarked) [5j, 2-(4-nitrophenyl)-3-(2-(pyrrolidin-1-yl)ethyl)thiazolidin-4-one], for which, at AChE [1], the IC50 was 8.68 µM and the “concentration from which AChE activity was inhibited, hippocampus” value is ≥ 1 µM. Besides, at AChE [2], the half-inhibitory concentration (IC50) is 28.1 µM and the “concentration from which AChE activity was inhibited, cerebral cortex” value is ≥ 1 µM. For the same compound, the “cell viability of astrocyte primary culture (MTT)” value (from here on “cell viability”) in the data set on cortical astrocytes is on record as “did not change de cell viability”.
In the case of `Cc1ccc(C2SCC(=O)N2CCN2CCCC2)cc1` (centres unmarked) [5k, 3-(2-(pyrrolidin-1-yl)ethyl)-2-p-tolylthiazolidin-4-one], the 50% inhibitory concentration (IC50) at AChE [1] and at AChE [2] was > 250 µM in each case.
In the case of `COc1ccc(C2SCC(=O)N2CCN2CCCC2)cc1` (centres unmarked) [5n, 2-(4-methoxyphenyl)-3-(2-(pyrrolidin-1-yl)ethyl)thiazolidin-4-one], the IC50 at AChE [1] and at AChE [2] was > 250 µM in each case.
Consider `O=C1CSC(c2cccc(O)c2)N1CCN1CCCC1` (centres unmarked) [5o, 2-(3-hydroxyphenyl)-3-(2-(pyrrolidin-1-yl)ethyl)thiazolidin-4-one], for which the figures for the IC50 at AChE [1] and on AChE [2] were 30.6 µM and 27.6 µM, respectively.
As for `O=C1CCSC(c2ccccc2)N1CCN1CCCC1` (centres unmarked) [6a, 2-phenyl-3-(2-(pyrrolidin-1-yl)ethyl)-1,3-thiazinan-4-one], at AChE [1], the IC50 was 5.2 µM and the “concentration from which AChE activity was inhibited, hippocampus” value is ≥ 1 µM. Moreover, at AChE [2], the IC50 is 7.4 µM and the “concentration from which AChE activity was inhibited, cerebral cortex” value is ≥ 5 µM. Also, the “cell viability” value in the data set with cortical astrocytes is on record as “did not change de cell viability”.
Take `O=C1CCSC(c2ccc(Cl)cc2)N1CCN1CCCC1` (centres unmarked) [6g, 2-(4-chlorophenyl)-3-(2-(pyrrolidin-1-yl)ethyl)-1,3-thiazinan-4-one]: the IC50 at AChE [1] is 50.5 µM; on AChE [2], 57.2 µM.
For the compound `O=C1CCSC(c2ccccc2[N+](=O)[O-])N1CCN1CCCC1` (centres unmarked) [6h, 2-(2-nitrophenyl)-3-(2-(pyrrolidin-1-yl)ethyl)-1,3-thiazinan-4-one], at AChE [1], the IC50 is 92.8 µM and the “concentration from which AChE activity was inhibited, hippocampus” value came to 5 µM. In addition, at AChE [2], the half-inhibitory concentration (IC50) was 11 µM and the “concentration from which AChE activity was inhibited, cerebral cortex” value was ≥ 1 µM. The “cell viability” value in the data set on cortical astrocytes is listed as “did not change de cell viability”.
Consider `O=C1CCSC(c2cccc([N+](=O)[O-])c2)N1CCN1CCCC1` (centres unmarked) [6i, 2-(3-nitrophenyl)-3-(2-(pyrrolidin-1-yl)ethyl)-1,3-thiazinan-4-one], for which, on AChE [1], the IC50 is 29.4 µM and the “concentration from which AChE activity was inhibited, hippocampus” value was ≥ 50 µM. At AChE [2], the half-inhibitory concentration (IC50) is 50.6 µM and the “concentration from which AChE activity was inhibited, cerebral cortex” value was ≥ 50 µM.
As to `O=C1CCSC(c2ccc([N+](=O)[O-])cc2)N1CCN1CCCC1` (centres unmarked) [6j, 2-(4-nitrophenyl)-3-(2-(pyrrolidin-1-yl)ethyl)-1,3-thiazinan-4-one], at AChE [1], the IC50 is 9.32 µM and the “concentration from which AChE activity was inhibited, hippocampus” value is ≥ 1 µM. Also, on AChE [2], the half-inhibitory concentration (IC50) was 40.1 µM and the “concentration from which AChE activity was inhibited, cerebral cortex” value was ≥ 10 µM. Moreover, the “cell viability” value in the data set on cortical astrocytes is “did not change de cell viability”.
For `Cc1ccc(C2SCCC(=O)N2CCN2CCCC2)cc1` (centres unmarked) [6k, 3-(2-(pyrrolidin-1-yl)ethyl)-2-(p-tolyl)-1,3-thiazinan-4-one] the same measures were 4.46 µM, ≥ 1 µM, 6.83 µM, ≥ 5 µM and “did not change de cell viability”.
In the case of `COc1cccc(C2SCCC(=O)N2CCN2CCCC2)c1` (centres unmarked) [6m, 2-(3-methoxyphenyl)-3-(2-(pyrrolidin-1-yl)ethyl)-1,3-thiazinan-4-one], the concentration for half-maximal inhibition (IC50) at AChE [1] was 90.3 µM. At AChE [2], the IC50 is 24 µM and the “concentration from which AChE activity was inhibited, cerebral cortex” value was ≥ 25 µM.
Regarding `COc1ccc(C2SCCC(=O)N2CCN2CCCC2)cc1` (centres unmarked) [6n, 2-(4-methoxyphenyl)-3-(2-(pyrrolidin-1-yl)ethyl)-1,3-thiazinan-4-one], on AChE [1], the concentration for half-maximal inhibition (IC50) is 17 µM. Further, on AChE [2], the IC50 was 22.2 µM and the “concentration from which AChE activity was inhibited, cerebral cortex” value is ≥ 5 µM. In addition, the “cell viability” value with cortical astrocytes is given as “did not change de cell viability”.
For the compound `O=C1CCSC(c2cccc(O)c2)N1CCN1CCCC1` (centres unmarked) [6o, 2-(3-hydroxyphenyl)-3-(2-(pyrrolidin-1-yl)ethyl)-1,3-thiazinan-4-one], the half-maximal inhibitory concentration (IC50) on AChE [1] is 69.6 µM. For the same compound, at AChE [2], the IC50 was 25.7 µM and the “concentration from which AChE activity was inhibited, cerebral cortex” value was ≥ 25 µM.
Consider `COc1cccc(C2SCCC(=O)N2CCN2CCCC2)c1OC` (centres unmarked) [6p, 2-(2,3-dimethoxyphenyl)-3-(2-(pyrrolidin-1-yl)ethyl)-1,3-thiazinan-4-one], for which, on AChE [1] (disubstituted aryl, tissue not stated in the sentence (follows hippocampus results)), the “AChE inhibition activity (qualitative)” value is given as “decrease in activity”.
